Source: patent US20160297830A1, “NOVEL COMPOUNDS USEFUL FOR THE TREATMENT OF BACTERIAL INFECTIOUS DISEASES” (GALAPAGOS NV, priority 2013, published 2016)
pIC50: −log10 of the molar value. Values after ≈ are worked out from the molar mass of the structure shown. Where two headings read alike, the source gives them in different places.

Assays:
[1] = tested on: E. coli Ec50 efflux pump KO; assay: microbe, parasite or virus in culture; type: cell-based; settings: Escherichia coli, read-out: MIC Ec50 efflux pump KO
[2] = tested on: Methicillin Resistant S. aureus Sa2 (MRSA); assay: animal or person; type: in vivo; settings: Study 1, 50 mg/kg PO BID, sample 24 h post infection, lung
[3] = tested on: S. aureus Sa2 clinical strain NCIMB 41953, MRSA; assay: microbe, parasite or virus in culture; type: cell-based; settings: Staphylococcus aureus, read-out: MIC Sa2
DNA III Polymerase E = DNA III Polymerase E (Escherichia coli, UniProt P10443); assay: In vitro activity against DNA III Polymerase E, E. coli; type: biochemical
DNA III Polymerase E, sequence (P10443 whole entry): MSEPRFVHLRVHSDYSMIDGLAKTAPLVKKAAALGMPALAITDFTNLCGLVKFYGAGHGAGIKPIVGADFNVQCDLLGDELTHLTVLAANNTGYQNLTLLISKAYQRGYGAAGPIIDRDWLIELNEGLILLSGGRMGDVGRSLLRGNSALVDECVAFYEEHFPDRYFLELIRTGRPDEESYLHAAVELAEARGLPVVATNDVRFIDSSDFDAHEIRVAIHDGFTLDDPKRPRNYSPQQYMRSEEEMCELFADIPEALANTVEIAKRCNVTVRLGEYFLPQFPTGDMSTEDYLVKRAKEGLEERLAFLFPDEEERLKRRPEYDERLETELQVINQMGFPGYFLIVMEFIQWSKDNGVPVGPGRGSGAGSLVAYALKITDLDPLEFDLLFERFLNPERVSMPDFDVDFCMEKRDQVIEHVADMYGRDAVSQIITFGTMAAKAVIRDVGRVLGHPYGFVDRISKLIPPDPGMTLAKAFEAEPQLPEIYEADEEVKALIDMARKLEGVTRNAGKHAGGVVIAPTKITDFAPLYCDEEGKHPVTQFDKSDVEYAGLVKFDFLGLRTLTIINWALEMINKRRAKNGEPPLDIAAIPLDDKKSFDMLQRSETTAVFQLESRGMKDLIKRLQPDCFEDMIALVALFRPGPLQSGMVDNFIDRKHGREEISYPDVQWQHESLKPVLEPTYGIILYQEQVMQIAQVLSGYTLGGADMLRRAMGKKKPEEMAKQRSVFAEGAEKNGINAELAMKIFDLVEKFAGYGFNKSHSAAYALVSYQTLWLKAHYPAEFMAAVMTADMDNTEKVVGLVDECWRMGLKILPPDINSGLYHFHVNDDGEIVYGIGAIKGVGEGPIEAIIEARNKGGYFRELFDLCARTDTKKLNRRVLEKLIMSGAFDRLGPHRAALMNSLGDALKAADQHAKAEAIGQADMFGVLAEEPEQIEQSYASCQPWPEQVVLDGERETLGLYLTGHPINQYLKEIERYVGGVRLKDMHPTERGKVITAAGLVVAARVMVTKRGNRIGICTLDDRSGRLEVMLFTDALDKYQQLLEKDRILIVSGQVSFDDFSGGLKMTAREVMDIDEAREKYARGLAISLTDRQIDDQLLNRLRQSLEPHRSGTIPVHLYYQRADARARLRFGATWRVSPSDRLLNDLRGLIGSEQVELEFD
Protocol: A radioactive filterplate assay was used to assess inhibitory activity of compounds on DNA Polymerase IIIα. Five μL of a dilution series of compound, starting from 100 μM highest concentration, 1/5 dilution, was added to the wells of a 96 well plate. Recombinant enzyme was diluted to 0.47 μg/mL in a buffer containing 20 mM Tris pH7.5, 8 mM DTT, 10 mM MgOAc, 0.05% CHAPS and 10 μL thereof was added to the compound dilutions. The reaction was started with the addition of 10 μL substrate in the same buffer, containing activated calf thymus DNA (Sigma, D4522), dATP, dGTP, dCTP, dTTP (Invitrogen) and [α-33P]-dTTP (Perkin Elmer, NEG605H001) at a concentration of 62.5 μg/mL, 50 nM and 7.5 μCi/mL respectively. The mixture was incubated at 30° C. for 120 minutes and terminated by addition of phosphoric acid. Samples were transferred to filter plates and incorporated radioactivity was measured by the Topcount. Data were converted to percent inhibition with respect to positive and negative controls. IC50 values were calculated using Graph Prism™ software.

[4] = tested on: E. coli Ec113 efflux pump KO; assay: microbe, parasite or virus in culture; type: cell-based; settings: Escherichia coli, read-out: MIC Ec113 efflux pump KO
S. aureus Sa4 NCTC 6571 = assay: Antibacterial activity assay (MIC), S. aureus Sa4; type: cell-based; settings: Staphylococcus aureus
S. aureus Sa1 ATCC 13709 = assay: microbe, parasite or virus in culture; type: cell-based; settings: Staphylococcus aureus
E. coli Ec1 ATCC 25922 = assay: Antibacterial activity assay (MIC), E. coli Ec1; type: cell-based; settings: Escherichia coli
[5] = tested on: H. influenza Hi3 ATCC 31517; assay: organism not typed; type: cell-based; settings: read-out: MIC Hi3
[6] = tested on: S. aureus Sa26 ATCC 25923; assay: Antibacterial activity assay (MIC), S. aureus Sa26; type: cell-based; settings: Staphylococcus aureus
[7] = target: DNA Polymerase IIIα (DnaE) from Staphylococcus aureus (Staphylococcus aureus, UniProt Q6GG04); assay: biochemical
DNA Polymerase IIIα (DnaE) from Staphylococcus aureus, sequence (Q6GG04 1-1022): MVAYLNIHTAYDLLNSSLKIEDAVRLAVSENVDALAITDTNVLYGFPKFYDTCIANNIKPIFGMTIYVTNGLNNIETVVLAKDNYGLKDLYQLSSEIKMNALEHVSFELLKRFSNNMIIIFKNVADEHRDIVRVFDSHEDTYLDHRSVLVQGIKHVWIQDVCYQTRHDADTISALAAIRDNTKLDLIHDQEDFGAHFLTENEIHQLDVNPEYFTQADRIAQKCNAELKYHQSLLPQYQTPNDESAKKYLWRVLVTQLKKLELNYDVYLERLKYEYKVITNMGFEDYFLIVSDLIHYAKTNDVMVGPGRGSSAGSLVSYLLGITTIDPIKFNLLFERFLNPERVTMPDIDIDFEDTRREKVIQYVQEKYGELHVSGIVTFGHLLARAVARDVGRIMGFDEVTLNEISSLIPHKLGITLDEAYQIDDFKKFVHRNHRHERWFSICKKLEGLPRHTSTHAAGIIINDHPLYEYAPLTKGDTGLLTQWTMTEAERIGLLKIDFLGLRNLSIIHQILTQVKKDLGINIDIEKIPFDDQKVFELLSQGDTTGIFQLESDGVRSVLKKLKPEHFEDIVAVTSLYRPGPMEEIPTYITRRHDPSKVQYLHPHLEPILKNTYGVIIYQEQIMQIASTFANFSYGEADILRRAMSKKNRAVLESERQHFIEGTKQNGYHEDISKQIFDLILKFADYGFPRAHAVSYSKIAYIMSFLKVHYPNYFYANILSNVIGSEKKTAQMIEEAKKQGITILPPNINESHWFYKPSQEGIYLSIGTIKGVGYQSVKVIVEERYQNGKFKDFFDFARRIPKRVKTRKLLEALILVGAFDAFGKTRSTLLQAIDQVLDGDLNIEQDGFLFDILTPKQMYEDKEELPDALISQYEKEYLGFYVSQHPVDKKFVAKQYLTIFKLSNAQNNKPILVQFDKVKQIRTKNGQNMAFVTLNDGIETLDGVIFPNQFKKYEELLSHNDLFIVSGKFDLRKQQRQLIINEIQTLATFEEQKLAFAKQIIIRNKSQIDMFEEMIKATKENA

[8] = tested on: H. influenza Hi106 ATCC 51907; assay: organism not typed; type: cell-based; settings: read-out: MIC Hi106
[9] = tested on: H. influenza Hi47 clinical strain, Ampicillin Resistant; assay: organism not typed; type: cell-based; settings: read-out: MIC Hi47
[10] = tested on: H. influenza Hi10 clinical strain; assay: organism not typed; type: cell-based; settings: read-out: MIC Hi10
[11] = tested on: Methicillin Resistant S. aureus (MRSA); assay: Neutropenic mouse thigh infection model; settings: Thigh Sa, Study 1; 100 mg/kg IP BID; sample time 7 h PI
[12] = DNA polymerase III, E. coli, read-out: IC50 semiquantitative scoring, E. coli
[13] = NCTC6571, S. aureus Sa4 NCTC 6571, sensitive strain, read-out: MIC Sa4
[14] = ATCC13709, S. aureus Sa1 ATCC 13709, sensitive strain, Mueller-Hinton Broth, 37° C., read-out: MIC Sa1
[15] = ATCC25922, E. coli Ec1 ATCC 25922, sensitive strain, read-out: MIC Ec1
[16] = ATCC25923, read-out: MIC Sa26 + 10% SH, S. aureus Sa26 + 10% SH
[17] = ATCC25923, read-out: MIC Sa26 + 50% SH, S. aureus Sa26 + 50% SH
[18] = ATCC25923, S. aureus Sa26 ATCC 25923, sensitive strain, Mueller-Hinton Broth, 37° C., read-out: MIC Sa26
[19] = ATCC25923, read-out: MIC Sa26 + 10% SH
[20] = ATCC25923, read-out: MIC Sa26 + 50% SH
[21] = DNA polymerase III, S. aureus, read-out: IC50 semiquantitative scoring, S. aureus

SMILES | MIC [1] [µg/mL] | MIC [3] [µg/mL] | pIC50 (DNA III Polymerase E; [12]) | MIC [4] [µg/mL] | MIC (S. aureus Sa4 NCTC 6571; [13]) [µg/mL] | MIC (S. aureus Sa1 ATCC 13709; [14]) [µg/mL] | MIC (E. coli Ec1 ATCC 25922; [15]) [µg/mL] | MIC [5] [µg/mL] | MIC [6, 16] [µg/mL] | MIC [6, 17] [µg/mL] | MIC [6, 18] [µg/mL] | pIC50 [7] | MIC [8] [µg/mL] | MIC [9] [µg/mL] | MIC [10] [µg/mL] | MIC (S. aureus Sa4 NCTC 6571; NCTC6571, read-out: MIC Sa4) [µg/mL] | MIC (S. aureus Sa1 ATCC 13709; ATCC13709, read-out: MIC Sa1) [µg/mL] | MIC (E. coli Ec1 ATCC 25922; ATCC25922, read-out: MIC Ec1) [µg/mL] | MIC ([6]; ATCC25923, read-out: MIC Sa26) [µg/mL] | MIC [6, 19] [µg/mL] | further results
COCC(=NO)[C@H]1OC(=O)[C@H](COC)[C@H]2C=C[C@H]3[C@H]4O[C@]2(/C(C)=C/[C@H]1C)[C@@H]3[C@H](O)[C@@H](COC)[C@H]4OC(=O)c1ccc[nH]1 [Compound 25, 18-Deoxy-18-oximino-8-O-1H-pyrrole-2′-carbonylbranimycin] | 0.5 (≈ 0.849 µM) | ≤ 0.06 | 4.77 to 5.77 | 0.25 (≈ 0.425 µM) | 0.25 (≈ 0.425 µM) | 0.25 (≈ 0.425 µM) | > 64 | > 64 | 0.5 | 1 | 0.5 (≈ 0.849 µM) | 5.77 to 8.77 | > 64 | > 64 | > 64 | – | – | – | – | – | log reduction at 50 mg/kg ([2]; Staphylococcus aureus, MRSA, in Mus musculus, read-out: Log reduction vs. untreated): 0.36; Active [2]: N
COC[C@H]1[C@@H](O)[C@@H]2O[C@@]34/C(C)=C/[C@@H](C)[C@@H]([C@H](O)COC)OC(=O)[C@H](COC)[C@H]3C=C[C@@H]2[C@H]4[C@@H]1O [Branimycin, reference compound] | 8 (≈ 16.6 µM) | 64 (≈ 133 µM) | 4.68 to 5.68 | 1 (≈ 2.07 µM) | – | – | – | > 64 | – | – | – | 5.68 to 8.68 | > 64 | > 64 | > 64 | 64 (≈ 133 µM) | 64 (≈ 133 µM) | > 64 | 64 (≈ 133 µM) | 64 | Active [11]: N; Log reduction vs. untreated [11]: −0.3; MIC [6, 20]: 64 µg/mL
COC[C@H]1[C@@H](O)[C@@H]2O[C@@]34/C(C)=C/[C@@H](C)[C@@H]([C@H](O)COC)OC(=O)[C@H](COC)[C@H]3CC[C@@H]2[C@H]4[C@@H]1O [Compound 15, 4,5-Dihydro-branimycin] | > 64 | > 64 | – | 16 (≈ 33 µM) | – | – | – | > 64 | – | – | – | – | > 64 | > 64 | > 64 | > 64 | > 64 | > 64 | > 64 | > 64 | pIC50 (DNA III Polymerase E): < 4.69; MIC [6, 20]: > 64 µg/mL; pIC50 [7, 21]: 4.69 to 5.69
COC[C@@H]1[C@@H](O)[C@@H]2[C@H]3C=C[C@@H]4[C@@H](COC)C(=O)O[C@H]([C@H](O)COC)[C@H](C)/C=C(\C)[C@@]24O[C@H]3[C@@H]1OC(=O)c1cc(C#N)c[nH]1 [Compound 26, 8-O-4-Cyano-1H-pyrrole-2′-carbonylbranimycin] | 2 (≈ 3.33 µM) | 64 (≈ 107 µM) | 4.78 to 5.78 | 4 (≈ 6.66 µM) | – | – | – | > 128 | – | – | – | 5.78 to 8.78 | > 128 | > 128 | > 128 | 64 (≈ 107 µM) | 64 (≈ 107 µM) | > 128 | 128 (≈ 213 µM) | 128 | MIC [6, 20]: 64 µg/mL
COC[C@@H]1[C@@H](O)[C@@H]2[C@H]3C=C[C@@H]4[C@@H](COC)C(=O)O[C@H]([C@@H](COC)OC)[C@H](C)/C=C(\C)[C@@]24O[C@H]3[C@@H]1OC(=O)c1ccc[nH]1 [Compound 18, 17-O-Methyl-8-O-1H-pyrrole-2′-carbonylbranimycin] | > 64 | 1 (≈ 1.7 µM) | 4.77 to 5.77 | 2 (≈ 3.39 µM) | – | – | – | > 64 | – | – | – | 5.77 to 8.77 | > 64 | > 64 | > 64 | 1 (≈ 1.7 µM) | 1 (≈ 1.7 µM) | > 64 | 1 (≈ 1.7 µM) | 1 | MIC [6, 20]: 2 µg/mL
COC[C@@H](O)[C@H]1OC(=O)[C@H](COC)[C@H]2C=C[C@H]3[C@H]4O[C@]2(/C(C)=C/[C@H]1C)[C@@H]3[C@H](O)[C@@H](C)[C@H]4OC(=O)c1ccc[nH]1 [Compound 3, 8-O-1H-pyrrole-2′-carbonylbaleomycin] | 8 (≈ 14.7 µM) | 0.5 (≈ 0.916 µM) | 4.74 to 5.74 | 0.125 (≈ 0.229 µM) | 0.5 (≈ 0.916 µM) | 0.5 (≈ 0.916 µM) | > 64 | > 64 | 1 | 2 | 1 (≈ 1.83 µM) | 5.74 to 8.74 | 64 (≈ 117 µM) | > 64 | 64 (≈ 117 µM) | – | – | – | – | – | –
COC[C@@H]1[C@@H](O)[C@@H]2[C@H]3C=C[C@@H]4[C@@H](COC)C(=O)O[C@H](C(C)(O)COC)[C@H](C)/C=C(\C)[C@@]24O[C@H]3[C@@H]1OC(=O)c1ccc[nH]1 (stereo partly shown) [Compound 24, 17-Methyl-8-O-1H-pyrrole-2′-carbonylbranimycin] | 1 (≈ 1.7 µM) | 2 (≈ 3.39 µM) | – | 2 (≈ 3.39 µM) | 2 (≈ 3.39 µM) | 4 (≈ 6.78 µM) | > 64 | > 64 | 4 | 4 | 4 (≈ 6.78 µM) | 5.77 to 8.77 | > 64 | > 64 | > 64 | – | – | – | – | – | pIC50 (DNA III Polymerase E): < 4.77
COCC[C@H]1OC(=O)[C@H](COC)[C@H]2C=C[C@H]3[C@H]4O[C@]2(/C(C)=C/[C@H]1C)[C@@H]3[C@H](O)[C@@H](COC)[C@H]4O [Compound 17, 17-Deoxybranimycin] | > 64 | > 64 | < 4.67 | 8 (≈ 17.1 µM) | > 64 | > 64 | > 64 | > 64 | > 64 | > 64 | > 64 | – | > 64 | > 64 | > 64 | – | – | – | – | – | pIC50 [7, 21]: 5.67 to 8.67
COCC(=O)[C@H]1OC(=O)[C@H](COC)[C@H]2C=C[C@H]3[C@H]4O[C@]2(/C(C)=C/[C@H]1C)[C@@H]3[C@H](O)[C@@H](COC)[C@H]4OC(=O)c1ccc[nH]1 [Compound 20, 18-Deoxy-18-oxo-8-O-1H-pyrrole-2′-carbonylbranimycin] | > 64 | 2 (≈ 3.49 µM) | < 4.76 | 16 (≈ 27.9 µM) | – | – | – | > 64 | – | – | – | 5.76 to 8.76 | > 64 | > 64 | > 64 | 4 (≈ 6.97 µM) | 8 (≈ 13.9 µM) | > 64 | 8 (≈ 13.9 µM) | 16 | MIC [6, 20]: 32 µg/mL
COC[C@@H](O)[C@H]1OC(=O)[C@H](COC)[C@H]2C=C[C@H]3[C@H]4O[C@]2(/C(C)=C/[C@H]1C)[C@@H]3[C@H](O)[C@@H](C)[C@H]4OC(=O)c1ccoc1 [Compound 7, 8-O-Furane-3′-carbonylbaleomycin] | > 64 | 8 (≈ 14.6 µM) | – | 0.125 (≈ 0.229 µM) | 8 (≈ 14.6 µM) | 8 (≈ 14.6 µM) | > 64 | > 64 | 16 | 16 | 16 (≈ 29.3 µM) | 5.74 to 8.74 | 64 (≈ 117 µM) | 64 (≈ 117 µM) | 64 (≈ 117 µM) | – | – | – | – | – | pIC50 (DNA III Polymerase E): 5.74 to 8.74
